Test results published in ChEMBL document CHEMBL5579895, “Discovery of TYRA-300: First Oral Selective FGFR3 Inhibitor for the Treatment of Urothelial Cancers and Achondroplasia” (J Med Chem, 2024).
pIC50: −log10 of the molar value. Activity calls are given as the source filed them. The calls are words filed in the database; no cut-off is given here.

Legend:
[1] = Inhibition of recombinant FGFR3/BAIAP2L1 (unknown origin) transduced in mouse BaF3 cells incubated for 48 hrs by Cell Titer Glo assay; type: cell-based; conditions: BaF3, 48 h
[2] = Inhibition of recombinant BCR/FGFR1 (unknown origin) transduced in mouse BaF3 cells incubated for 48 hrs by Cell Titer Glo assay; type: cell-based; conditions: BaF3, 48 h
[3] = Inhibition of recombinant BCR/FGFR2 (unknown origin) transduced in mouse BaF3 cells incubated for 48 hrs by Cell Titer Glo assay; type: cell-based; conditions: BaF3, 48 h
[4] = Stability in human hepatocytes assessed as half life at 1 uM incubated upto 180 mins by LC-MS/MS analysis; type: ADME, cell-based, Hepatocyte
[5] = Inhibition of recombinant BCR/FGFR4 (unknown origin) transduced in mouse BaF3 cells incubated for 48 hrs by Cell Titer Glo assay; type: cell-based; conditions: BaF3, 48 h
[6] = Stability in human liver microsomes assessed as half life at 1 uM incubated upto 180 mins by LC-MS/MS analysis; type: ADME, Microsome
[7] = test system: RT112/84; experiment: cells; type: functional, cell-based; conditions: Homo sapiens
Description: Inhibition of cell viability in human RT112/84 cells harboring FGFR3/TACC3 fusion incubated for 72 to 120 hrs by Cell Titer Glo assay

[8] = test system: RT112/84; experiment: cells; type: functional, cell-based; conditions: Homo sapiens; remark: listed apart in the source
Description: Inhibition of cell viability in human RT112/84 cells harboring FGFR3 V555M mutant incubated for 72 to 120 hrs by Cell Titer Glo assay

[9] = Inhibition of cell viability in human UMUC14 cells harboring FGFR3 S249C mutant incubated for 72 to 120 hrs by Cell Titer Glo assay; type: functional, cell-based
[10] = test system: KG-1; experiment: Inhibition of cell viability in human KG-1 cells harboring FGFR1-fusion incubated for 72 to 120 hrs by Cell Titer Glo assay; type: functional, cell-based
[11] = test system: RT112/84; experiment: Antitumor activity against human RT112/84 cells harboring FGFR3/TACC3 fusion xenografted in Balb/c nude mouse model at 15 mg/kg, po bid treated for 21 days relative to control; type: functional; conditions: for inhibition in vivo at 15 mg/kg: RT112/84, 504 h, time 21 day, read-out: TGI

half-life at 1 µM [4] [min] | half-life at 1 µM [6] [min] | pIC50 [7] | pIC50 [8] | SMILES | pIC50 [1] | pIC50 [2] | pIC50 [3] | pIC50 [5] | pIC50 [9] | pIC50 [10] | inhibition in vivo at 15 mg/kg [11] [%] | Activity ([11]; time 21.0 day)
64 | – | – | – | Cc1ncc(Cl)c([C@@H](C)Oc2ccc3[nH]nc(-c4ccc(N5CC6(C5)CN(S(C)(=O)=O)C6)nc4)c3c2)c1Cl | 8.00 | 6.75 | 7.33 | – | – | – | – | –
– | – | – | – | C[C@@H](Oc1ccc2[nH]nc(-c3ccc(N4CC5(C4)CN(S(C)(=O)=O)C5)nc3)c2c1)c1c(Cl)cnc(F)c1Cl | 7.80 | 6.59 | – | – | – | – | – | –
27 | – | – | – | CCOC(=O)N1CC2(C1)CN(c1ccc(-c3n[nH]c4ccc(O[C@H](C)c5c(Cl)cncc5Cl)cc34)cn1)C2 | 7.66 | 6.36 | 6.61 | 6.38 | – | – | – | –
85 | – | – | – | C[C@@H](Oc1ccc2[nH]nc(-c3ccc(N4CC5(CCCS(=O)(=O)C5)C4)nc3)c2c1)c1c(Cl)cncc1Cl | 8.60 | 7.21 | 7.48 | 7.77 | – | – | – | –
– | 4.8 | – | – | C[C@@H](Oc1ccc2[nH]nc(-c3ccc(N4CCN(S(C)(=O)=O)C5(CC5)C4)nc3)c2c1)c1c(Cl)cncc1Cl | 7.92 | 6.76 | – | – | – | – | – | –
> 100 | – | – | – | C[C@@H](Oc1cc2c(-c3ccc(N4CC5(C4)CN(S(C)(=O)=O)C5)nc3)n[nH]c2cc1F)c1c(Cl)cncc1Cl | 8.20 | 7.08 | 7.25 | 7.40 | – | – | – | –
– | 15 | – | – | C[C@@H](Oc1ccc2[nH]nc(-c3ccc(C4CCN(S(C)(=O)=O)CC4)nc3)c2c1)c1c(Cl)cncc1Cl | 8.28 | 7.00 | – | – | – | – | – | –
86 | – | 8.08 | 7.77 | C[C@@H](Oc1ccc2[nH]nc(-c3ccc(N4CC5(CCS(=O)(=O)CC5)C4)nc3)c2c1)c1c(Cl)cncc1Cl | 7.96 | 6.89 | 6.88 | 6.77 | 8.00 | 6.48 | 76 | –
88 | – | – | – | C[C@@H](Oc1ccc2[nH]nc(-c3ccc(N4CCC5(CC4)CCS(=O)(=O)C5)nc3)c2c1)c1c(Cl)cncc1Cl | 7.85 | 6.37 | 6.71 | 6.24 | – | – | – | –
– | – | – | – | CCS(=O)(=O)N1CC2(CN(c3ccc(-c4n[nH]c5ccc(O[C@H](C)c6c(Cl)cncc6Cl)cc45)cn3)C2)C1 | 7.40 | 6.41 | 6.54 | 6.28 | – | – | – | –
14 | – | – | – | C[C@@H](Oc1ccc2[nH]nc(-c3ccc(N4CC5(CN(C(=O)N(C)C)C5)C4)nc3)c2c1)c1c(Cl)cncc1Cl | 7.77 | 6.63 | 6.69 | 6.33 | – | – | – | –
– | 4.7 | – | – | CCC(=O)N1CCN(c2ccc(-c3n[nH]c4ccc(O[C@H](C)c5c(Cl)cncc5Cl)cc34)cn2)CC1 | 8.22 | 6.95 | – | – | – | – | – | –
– | – | – | – | COc1cc2[nH]nc(-c3ccc(N4CC5(C4)CN(S(C)(=O)=O)C5)nc3)c2cc1O[C@H](C)c1c(Cl)cncc1Cl | 9.10 | 7.85 | 8.16 | 8.35 | – | – | – | –
> 100 | – | 7.57 | – | C[C@@H](Oc1ccc2[nH]nc(-c3ccc(N4CC5(C4)CN(S(C)(=O)=O)C5)nn3)c2c1)c1c(Cl)cncc1Cl | 8.06 | 6.69 | 6.65 | 6.56 | 7.47 | 6.62 | – | –
– | 3.3 | – | – | C[C@@H](Oc1ccc2[nH]nc(-c3ccc(N4CCN(S(C)(=O)=O)CC4=O)nc3)c2c1)c1c(Cl)cncc1Cl | 7.32 | 6.19 | 6.39 | 6.39 | – | – | – | –
– | 9.6 | – | – | C[C@@H](Oc1ccc2[nH]nc(-c3ccc(N4CCN(S(C)(=O)=O)CC4)nc3)c2c1)c1c(Cl)cncc1Cl | 8.24 | 6.82 | 6.98 | 6.81 | – | – | – | –
49 | – | – | – | C[C@@H](Oc1ccc2[nH]nc(-c3ccc(N4CC5(CCN5S(C)(=O)=O)C4)nc3)c2c1)c1c(Cl)cncc1Cl | 7.74 | 6.54 | 6.88 | 6.64 | – | – | – | –
– | – | – | – | C[C@@H](Oc1ccc2[nH]nc(-c3ccc(N4CC5(C4)CN(S(C)(=O)=O)C5)nc3)c2c1)c1c(Cl)cccc1Cl | 7.52 | 6.39 | – | – | – | – | – | –
> 100 | – | – | – | C[C@@H](Oc1ccc2[nH]nc(-c3cnc(N4CC5(C4)CN(S(C)(=O)=O)C5)cn3)c2c1)c1c(Cl)cncc1Cl | 7.80 | 6.72 | 7.01 | 7.68 | – | – | – | –
51 | – | – | – | CC(C)N1CC2(CN(c3ccc(-c4n[nH]c5ccc(O[C@H](C)c6c(Cl)cncc6Cl)cc45)cn3)C2)C1 | 8.39 | 7.23 | 7.46 | 7.66 | – | – | – | –

half-life at 1 µM [4] [min] | half-life at 1 µM [6] [min] | pIC50 [7] | pIC50 [8] | SMILES | pIC50 [1] | pIC50 [2] | pIC50 [3] | pIC50 [5] | pIC50 [9] | pIC50 [10] | inhibition in vivo at 15 mg/kg [11] [%] | Activity ([11]; time 21.0 day)
– | 1.1 | – | – | C[C@@H](Oc1ccc2[nH]nc(-c3ccc(N4CCN(C(=O)N(C)C)CC4)nc3)c2c1)c1c(Cl)cncc1Cl | 7.89 | 6.54 | 6.60 | 6.51 | – | – | – | –
– | 3.5 | – | – | C[C@@H](Oc1ccc2[nH]nc(-c3ccc(N4CCN(C(=O)N5CCN(C)CC5)CC4)nc3)c2c1)c1c(Cl)cncc1Cl | 8.19 | 6.95 | 6.94 | 6.83 | – | – | – | –
> 100 | – | 7.89 | 7.44 | C[C@@H](Oc1ccc2[nH]nc(-c3ccc(N4CC5(CCN(S(C)(=O)=O)C5)C4)nc3)c2c1)c1c(Cl)cncc1Cl | 7.80 | 6.40 | 6.65 | 6.75 | 7.89 | 6.69 | 22 | –
– | – | – | – | C[C@H](Oc1ccc2[nH]nc(-c3ccc(N4CC5(C4)CN(S(C)(=O)=O)C5)nc3)c2c1)c1c(Cl)cnnc1Cl | 6.75 | 5.70 | – | – | – | – | – | –
32 | – | – | – | Cc1cncc(C)c1[C@@H](C)Oc1ccc2[nH]nc(-c3ccc(N4CC5(C4)CN(S(C)(=O)=O)C5)nc3)c2c1 | 8.09 | 6.87 | 7.07 | 7.28 | – | – | – | –
132 | – | – | – | C[C@@H](Oc1ccc2[nH]nc(-c3cnc(N4CC5(C4)CN(S(C)(=O)=O)C5)nc3)c2c1)c1c(Cl)cncc1Cl | 7.52 | 6.06 | 6.31 | 6.89 | – | – | – | inactive
– | 8.5 | – | – | COC(=O)N1CCN(c2ccc(-c3n[nH]c4ccc(O[C@H](C)c5c(Cl)cncc5Cl)cc34)cn2)CC1 | 7.42 | 6.25 | 6.41 | 6.23 | – | – | – | –
102 | – | 8.04 | 7.66 | C[C@@H](Oc1ccc2[nH]nc(-c3ccc(N4CC5(CCS(=O)(=O)C5)C4)nc3)c2c1)c1c(Cl)cncc1Cl | 8.49 | 6.98 | 6.95 | 6.97 | 8.00 | 7.08 | 56 | –
36 | – | – | – | C[C@@H](Oc1ccc2[nH]nc(-c3ccc(N4CCC5(CC4)CN(C)CC(=O)N5)nc3)c2c1)c1c(Cl)cncc1Cl | 7.89 | 6.68 | 6.81 | 6.53 | – | – | – | –
– | 5 | – | – | C[C@@H](Oc1ccc2[nH]nc(-c3ccc(N4CCN(C)CC4)nc3)c2c1)c1c(Cl)cncc1Cl | 8.44 | 7.34 | 7.55 | 7.57 | – | – | – | –
– | – | – | – | C[C@@H](Oc1ccc2[nH]nc(/C=C/c3cnn(CCO)c3)c2c1)c1c(Cl)cncc1Cl [LY-2874455] | 9.70 | 9.30 | 9.70 | 8.70 | – | – | – | –
40 | – | – | – | C[C@@H](Oc1ccc2[nH]nc(-c3ccc(N4CC5(CCCN(S(C)(=O)=O)C5)C4)nc3)c2c1)c1c(Cl)cncc1Cl | 8.22 | 7.03 | 7.21 | 7.41 | – | – | – | –
– | – | – | – | C[C@H](Oc1ccc2[nH]nc(-c3ccc(N4CC5(C4)CN(S(C)(=O)=O)C5)nc3)c2c1)c1c(Cl)cncc1Cl | 6.88 | – | – | – | – | – | – | –
– | – | – | – | C[C@@H](Oc1ccc2[nH]nc(-c3ccc(N4CCC5(CCOC5)CC4)nc3)c2c1)c1c(Cl)cncc1Cl | 7.32 | 6.15 | 6.44 | 6.08 | – | – | – | –
– | 5.5 | – | – | C[C@@H](Oc1ccc2[nH]nc(-c3ccc(N4CCOCC4)nc3)c2c1)c1c(Cl)cncc1Cl | 7.44 | 6.29 | 6.50 | 5.91 | – | – | – | –
– | – | – | – | C[C@@H](Oc1ccc2[nH]nc(-c3ccc(Cl)nc3)c2c1)c1c(Cl)cncc1Cl | 6.96 | 5.98 | 6.35 | 5.66 | – | – | – | –
– | – | – | – | C[C@@H](Oc1cc2c(-c3ccc(N4CC5(C4)CN(S(C)(=O)=O)C5)nc3)n[nH]c2cc1Cl)c1c(Cl)cncc1Cl | 8.21 | 7.22 | 7.46 | 7.43 | – | – | – | –
– | – | – | – | C[C@@H](Oc1ccc2[nH]nc(-c3ccc(N4CCC5(CCCO5)CC4)nc3)c2c1)c1c(Cl)cncc1Cl | 7.01 | 6.06 | 6.30 | 5.69 | – | – | – | –
– | – | – | – | C[C@@H](Oc1ccc2[nH]nc(-c3ccc(N4CC5(C4)CS(=O)(=O)C5)nc3)c2c1)c1c(Cl)cncc1Cl | 7.59 | 6.64 | 6.72 | 6.52 | – | – | – | –

SMILES | half-life at 1 µM [4] [min] | half-life at 1 µM [6] [min] | pIC50 [7] | pIC50 [8] | pIC50 [1] | pIC50 [2] | pIC50 [3] | pIC50 [5] | pIC50 [9] | pIC50 [10] | inhibition in vivo at 15 mg/kg [11] [%] | Activity ([11]; time 21.0 day)
C[C@@H](Oc1ccc2[nH]nc(-c3ccc(N4CC5CC(C4)N5S(C)(=O)=O)nc3)c2c1)c1c(Cl)cncc1Cl | – | 15 | – | – | 7.64 | 6.47 | – | – | – | – | – | –
